Test system: B16 mouse melanoma cells
Assay: B16 inhibition assay (melanin synthesis, normalized to MTT cell viability)
Type: cell-based
Details: 7 days
Experimental: The B16 assay uses a cell line derived from mice with inhibition of tyrosinase as the end point. For the B16 assay, the active oxobutanoic acid tyrosinase inhibitors as disclosed herein in Table 1 were tested in a monolayer cell culture of B16 mouse melanoma cells. These cells are known to constitutively produce melanin and are a commonly utilized and accepted model system for monitoring the inhibition of melanin synthesis.
The B16 mouse melanoma cells were seeded (ATCC, cat. #: CRL-6475) into 96-well tissue culture-treated plates (BD Falcon) and treated with test actives diluted in DMEM without phenol red (Mediatech; cat. #: 17-205-CV) and examined for their ability to modulate pigment formation. Kojic acid was used as the positive control inhibitor. Cells were exposed to diluted test material or controls for 7 days. Following the treatment period, the level of pigment produced or melanin synthesized was quantified by reading the absorbance at 540 nm using a standard microplate reader (Tecan Group Ltd.).
After quantifying the amount of melanin, cell viability was determined using the MTT conversion method. The MTT conversion method measures the reduction of the MTT dye from a yellow colored, water-soluble, tetrazolium salt to a bluish-purple colored insoluble formazan precipitate by NAD(P)H-dependent microsomal dehydrogenase enzymes, which only function in viable cells. The intensity of the blue color is indicative of cell viability. After quantifying the amount of melanin pigment produced, the cells were exposed to MTT dye solution (1 mg/ml) for two to three hours. Formazan material was solubilized with reagent alcohol (95% ethanol: 5% isopropanol) and shaken on an orbital shaker for 15-30 minutes. MTT dye uptake and conversion by viable cells were determined by measuring the extracted formazan at 570 nm using a microplate reader. Total pigmentation was calculated, normalized to cell viability values and expressed as percent activity relative to control. The compounds A-H of Table 1 in a weight percent ranging from about 0.0002% to about 0.002% inhibited tyrosinase by a percent ranging from about 29% to about 87%. […]

Compound	B16 Results Percent inhibition of melanin (concentration 0.0001%) [%]	B16 Results Percent inhibition of melanin (concentration 0.001%) [%]
Cc1ccc(C(=O)CC(NCc2ccccc2)C(=O)O)cc1 (stereo not drawn) [K, 2-(benzylamino)-4-(4′-methylphenyl)-4-oxobutanoic acid]	−46	−67
Cc1ccc(C(=O)CC(NCc2ccco2)C(=O)O)cc1 (stereo not drawn) [I, 2-(2-furanylmethylamino)-4-(4′-methylphenyl)-4-oxobutanoic acid]	−20	−71
COc1ccc(C(=O)CC(NCc2cccnc2)C(=O)O)cc1 (stereo not drawn) [J, 2-(3-pyridylmethylamino)-4-(4′-methoxyphenyl)-4-oxobutanoic acid]	−27.84	−53.63
